In patent US20090226427A1, “NOVEL PHARMACEUTICAL COMPOSITIONS FOR MODULATING ANGIOGENESIS” (priority 1999, published 2009):

How the values were obtained:
phospho-Akt = phospho-Akt immunoblot, insulin-stimulated cardiac myocytes; format: cell-based; conditions: neonatal mouse cardiac myocytes
Protocol: (§4) Cell Culture was performed as follows: Freshly isolated human umbilical vein EC (HUVEC) were cultured to confluence in 100-mm dishes in a 2:1 mixture of M199/endothelial cell basal medium containing 10% serum; control experiments were also performed with myocytes isolated from neonatal mice as previously detailed (Feron, et al. (1998) J. Biol. Chem. 273, 30249-30254) and plated at 5×10^5 cells/ml. Serum-starved EC and myocytes were exposed for the indicated periods of time to VEGF (50 ng/ml) and insulin (12.5 milliunits/ml), respectively, in the presence or absence of various pharmacological modulators (30-60 min preincubation with 1 μg/ml geldanamycin (Invitrogen Life Technolo-gies) or 10 μM LY294002 (Sigma)).
(§5) Accordingly, neonatal mouse cardiac myocytes were exposed to insulin (a known activator of Akt in myocytes) for 5 min with or without geldanamycin and examined the phosphorylation status of Akt and eNOS. […] Myocytes show native expression of GSK-3 and were used to determine whether geldanamycin could influence the phosphorylation of this other Akt substrate.

phospho-eNOS = phospho-eNOS immunoblot, insulin-stimulated cardiac myocytes; format: cell-based; conditions: neonatal mouse cardiac myocytes
Protocol: as §4, §5

phospho-GSK-3 = phospho-GSK-3 immunoblot, insulin-stimulated cardiac myocytes; format: cell-based; conditions: neonatal mouse cardiac myocytes
Protocol: as §4, §5

caveolin [1] = experiment: caveolin immunoblot, AoECs; format: cell-based, rat; conditions: AoECs; culture medium supplemented with mevalonate
Description: (§1) Therefore, the effects of statin exposure on the absolute amounts of caveolin in AoECs and CMECs was examined.

caveolin [2] = experiment: caveolin immunoblot, AECs; format: cell-based, Bovine; conditions: AECs; culture medium supplemented with mevalonate
Description: as §1

phospho-Ser1177-eNOS [3] = experiment: phospho-Ser1177-eNOS immunoblot, statin-exposed HUVECs; conditions: for effect on statin-induced phosphorylation of eNOS: atorvastatin 1 μmol/L, LY294002 10 μmol/L, geldanamycin 1 μg/mL, mevalonate 1 mmol/L, BAPTA-AM 20 μmol/L, CSD peptide loading
eNOS/hsp90 interaction = experiment: eNOS/hsp90 co-immunoprecipitation, statin-exposed HUVECs; conditions: mevalonate 1 mmol/L, BAPTA-AM 20 μmol/L, CSD peptide loading
[4] = test system: phospho-Akt/eNOS interaction; experiment: eNOS/phospho-Akt co-immunoprecipitation, statin-exposed HUVECs; conditions: co-IP
eNOS = experiment: nitrite (NO2-) detection, VEGF-stimulated EC; format: cell-based, human
Protocol: Nitrite was Detected as follows: Quantitative analysis of nitrite (NO2^−) was used as an index of NO production. Briefly, aliquots of the medium bathing intact EC were collected at the time intervals corresponding to either 0-2 or 5-30 min of VEGF exposure. For the latter period, the medium bathing the VEGF-stimulated cells for the first 5 min was discarded and replaced by fresh VEGF-containing medium for the next 25 min. […] Data are normalized for the amount of protein in the dish, and are presented for convenience as mean+/−S.E. Statistical analyses were made using Student's t test or one-way ANOVA where appropriate.

CaM/eNOS interaction = experiment: CaM/eNOS co-immunoprecipitation, EC; format: cell-based, human
Protocol: (§2) Immunoprecipitation, Immunoblotting, and Kinase Assay was performed as follows: EC were homogenized in a buffer containing phosphatase and protease inhibitors (Garcia-Cardena, G., et al. (1998) Nature 392, 821-824), and processed for immunoblotting or immunoprecipitation in a octyl glucoside-containing buffer as described previously (Feron, O., et al. (1998) J. Biol. Chem. 273, 3125-3128). Caveolin, eNOS, and hsp90 antibodies were from BD Transduction Labs, Akt and phospho-Akt antibodies from BD PharMingen, CaM antibody from Santa Cruz, and phospho-eNOS antibody from NEB Cell Signaling Technology. Akt activity was measured using a non-radioactive immunoprecipitation kinase assay kit (NEB Cell Signaling Technology).
In order to further dissect the calcium dependence of the Akt-mediated phosphorylation of eNOS, the eNOS/CaM association was examined after 2 and 30 min VEGF exposure, i.e. at the maximum of the calcium transient and after the return of [Ca^2+]i to its basal level, respectively.

CMECs = experiment: angiogenesis assay on Matrigel, CMECs; format: cell-based, Mouse; conditions: CMECs; L-NAME 5 mmol/L coincubation; geldanamycin 1 μg/mL 30-minute preincubation
Protocol: (§3) Tube formation was observed using an inverted phase-contrast microscope (Zeiss Axiovert 25), and images were captured with a videographic system (Pixera Pro). The tube formation index was determined by measuring the length of tubes in random fields from each well using the Image J program. Statistical analyses were made using the Student t test or one-way ANOVA where appropriate.

AoECs = experiment: aortic ring culture in Matrigel, AoEC network organization; format: cell-based, rat; conditions: L-NAME added at the time of serum deprivation
Protocol: as §3, with “Cultures of AoECs and CoMECs organized in a network were then challenged at day 5 by incubation under serum-free conditions for 24 to 48 hours with or without some of the drugs mentioned above. […] Tube” for “Tube”

phospho-Ser473-Akt [5] = experiment: phospho-Ser473-Akt immunoblot, statin-exposed HUVECs; conditions: for (basal) level of Akt phosphorylation: phosphatase inhibitor
HUVECs = experiment: angiogenesis assay on Matrigel, HUVECs; format: cell-based, human; conditions: HUVECs on Matrigel, atorvastatin
Protocol: as §3
Transfection and peptide loading was performed by reversible permeabilization: HUVECs were transfected with the hsp90 cDNA (a gift from Dr W. C. Sessa, Yale University, New Haven, Conn.) using Lipofectamine (Invitrogen) according to the manufacturer's protocol; an irrelevant plasmid encoding β-galactosidase was used as a control to obtain identical amounts of transfected DNA in each condition. HUVECs were also reversibly permeabilized, as previously reported (Feron et al. J Biol. Chem. 1998; 273:30249-30254), to introduce synthetic peptides derived from the caveolin scaffolding domain (CSD).

caveolin-eNOS complex = experiment: caveolin/eNOS co-immunoprecipitation, VEGF-exposed HUVEC; format: cell-based, human; conditions: for effect on VEGF-induced caveolin/eNOS dissociation: geldanamycin, BAPTA
Protocol: as §2, with “(1998) J. Biol. Chem. 273, 30249-30254) and plated at 5×10^5 cells/ml. […] Immunoprecipitation,” for “Immunoprecipitation,”, “(Garcia-[…].,” for “(Garcia-Cardena, G.,”, “Technology). […] First, extracts were immunoprecipitated with caveolin antibodies and the immuno-precipitation immunoblotted with eNOS antibodies (FIG. 10A, top). […] Experiments were then performed to determine the time course of hsp90 interaction with eNOS.” for “Technology).”

hsp90/eNOS interaction = experiment: hsp90/eNOS co-immunoprecipitation, VEGF-exposed HUVEC; format: cell-based, human
phospho-Ser1177-eNOS [6] = experiment: phospho-Ser1177-eNOS immunoblot, VEGF-exposed HUVEC; format: cell-based, human
phospho-Ser473-Akt [7] = experiment: phospho-Ser473-Akt immunoblot, VEGF-exposed HUVEC; format: cell-based, human
Akt/eNOS interaction = experiment: Akt/eNOS co-immunoprecipitation, VEGF-exposed HUVEC; format: cell-based, human
Protocol: Immunoprecipitation, Immunoblotting, and Kinase Assay was performed as follows: EC were homogenized in a buffer containing phosphatase and protease inhibitors (Garcia-[…] ., et al. (1998) Nature 392, 821-824), and processed for immunoblotting or immunoprecipitation in a octyl glucoside-containing buffer as described previously (Feron, O., et al. (1998) J. Biol. Chem. 273, 3125-3128). Caveolin, eNOS, and hsp90 antibodies were from BD Transduction Labs, Akt and phospho-Akt antibodies from BD PharMingen, CaM antibody from Santa Cruz, and phospho-eNOS antibody from NEB Cell Signaling Technology. Akt activity was measured using a non-radioactive immunoprecipitation kinase assay kit (NEB Cell Signaling Technology). It was further analyzed whether eNOS and Akt interact together in eNOS/Akt co-immunoprecipitation experiments. […] In an attempt to appreciate the proportion of eNOS involved in the geldanamycin-sensitive recruitment of Akt, the reverse co-immunoprecipitation assay was further developed: hsp90 and Akt antibodies were used to immunoprecipitate eNOS (which was detected by immunoblotting) and the supernatants of these immunoprecipitations were checked for residual eNOS presence; for this purpose, the immunoprecipitated supernatants were submitted to a second immunoprecipitation with eNOS antibodies.

[Ca^2+]i = Fura-2 measurement of [Ca2+]i in VEGF-exposed EC; format: cell-based, human
Protocol: Alternating wavelength excitation of 340 and 380 nm was provided by a motorized filter wheel. The image pairs monitored by the Ionoptix Myocam camera were processed by the IonWizard software (Ionoptix, Milton, Mass.) and are presented as the fluorescence ratio (340/380 nm), a direct index to the [Ca^2+]i. In some experiments, Fura-2-loaded cells were preincubated with the intracellular calcium chelator BAPTA/AM (20 μM).

wild-type eNOS = experiment: nitrite production in transfected COS cells, wild-type eNOS; format: cell-based
endothelial cells = experiment: sandwich Matrigel model of endothelial tube formation; format: cell-based
Protocol: Indeed, while endothelial cells culture leads to pavimentous organization when plated on dishes (FIG. 1A), endothelial cells progressively form tubes when cultured within gels of collagen, fibrin or Matrigel®. Accordingly, in the “3-D model”, endothelial cells are mixed to the matrix before gelification and tube-like structures are obtained after 48-72 hours (FIG. 1B); this model, however, reduces the efficiency of transfection. In the “sandwich model”, cells are first cultured to confluence on a first layer of matrix, and are then covered by a second matrix layer; cells are easily transfected in the interval preceding the addition of the upper layer. The latter technique allows the formation of endothelial tubes in 3-6 hours; the tube structures are mature 12 hours after induction (FIG. 1C) and then start to regress.
Of note, when endothelial cells were transfected with an irrelevant construct (β-galactosidase-encoding), no change in the rate and extent of tube formation was observed.

[8] = eNOS antibodies, geldanamycin 1 μg/ml 30 min, BAPTA
[9] = nitrite production normalized per min

insulin: a known activator of Akt in myocytes
Akt phosphorylation (phospho-Akt): stimulatory effect
eNOS phosphorylation (phospho-eNOS): stimulatory effect
GSK-3 phosphorylation (phospho-GSK-3): stimulatory effect

CC(O)(CCO)CC(=O)O (stereo not shown) [mevalonate]
effect on statin-induced reduction in caveolin abundance (caveolin [1]): blocked the statin-induced reduction in caveolin abundance
effect on statin-induced reduction in caveolin abundance (caveolin [2]): blocked the statin-induced reduction in caveolin abundance
effect on statin-induced phosphorylation of eNOS (phospho-Ser1177-eNOS [3]): reverse the stimulatory effect
effect on atorvastatin-stimulated eNOS/hsp90 interaction (eNOS/hsp90 interaction): reverse the stimulatory effect
effect on phospho-Akt/eNOS interaction upon statin [4]: reverse the stimulatory effect

CNc1ccc2oc(C[C@H]3O[C@@]4(CC[C@H]3C)O[C@H]([C@H](C)C(=O)c3ccc[nH]3)[C@H](C)C[C@H]4C)nc2c1C(=O)O [A23187]
early NO2^− production (0-2 min) relative to the level obtained with VEGF (eNOS; 1 μM A23187 pulse for 2 min): ~3 fold
long-term NO2^− production compared with VEGF-exposed cells (eNOS; 1 μM A23187 pulse for 2 min, then Ca^2+-free medium): significantly lower
eNOS/CaM association (CaM/eNOS interaction; short exposure to A23187): led to the early association between eNOS and CaM

COC(=O)[C@@H](N)CCCNC(=N)N[N+](=O)[O-] [L-NAME, N^G-nitro-L-arginine methyl ester]
effect on atorvastatin-induced tube formation (CMECs): almost completely blocked
effect on statin stabilisation of the network (AoECs): abrogated the beneficial effects of statin pretreatment

calyculin
(basal) level of Akt phosphorylation (phospho-Ser473-Akt [5]): stimulated Akt phosphorylation

C=C1[C@@H](O)[C@@H]2O[C@]3(CC[C@H](/C=C/[C@@H](C)[C@@H]4CC(C)=C[C@@]5(O[C@H](C[C@@](C)(O)C(=O)O)CC[C@H]5O)O4)O3)CC[C@H]2O[C@@H]1[C@@H](O)C[C@H](C)[C@H]1O[C@@]2(CCCCO2)CC[C@H]1C [okadaic acid]
effect on statin-induced tube formation (HUVECs): stimulated basal and statin-induced tube formation
(basal) level of Akt phosphorylation (phospho-Ser473-Akt [5]): dramatically increased
increase of statin-induced phosphorylation of eNOS in the presence of okadaic acid (phospho-Ser1177-eNOS [3]; okadaic acid versus okadaic acid+statin, 100 nmol/L): ~3 fold
effect on phospho-Akt/eNOS interaction upon statin [4]: promoted

CC(=O)OCOC(=O)CN(CC(=O)OCOC(C)=O)c1ccccc1OCCOc1ccccc1N(CC(=O)OCOC(C)=O)CC(=O)OCOC(C)=O [BAPTA-AM]
effect on VEGF-induced caveolin/eNOS dissociation (caveolin-eNOS complex): complete inhibition
effect on VEGF-induced hsp90/eNOS co-immunoprecipitation (hsp90/eNOS interaction; [8]): completely prevented
effect on VEGF-induced eNOS phosphorylation (phospho-Ser1177-eNOS [6]; LY294002 10 μM 1-h preincubation, geldanamycin 1 μg/ml, BAPTA-AM 20 μM): prevented
effect on VEGF-induced Akt phosphorylation (phospho-Ser473-Akt [7]; LY294002 10 μM 1-h preincubation, geldanamycin 1 μg/ml, BAPTA): not altered
effect on VEGF-induced Akt/eNOS co-immunoprecipitation (Akt/eNOS interaction; [8]): prevented
effect on VEGF-evoked calcium transient ([Ca^2+]i; 20 μM BAPTA-AM): completely abrogated
effect on the basal level of [Ca^2+]i ([Ca^2+]i; 20 μM BAPTA-AM): no effect
level of eNOS activation for the 5-30-min period (eNOS; BAPTA added after the early phase (at t=5 min), versus vehicle): no significant reduction
effect on early VEGF-induced eNOS activation (0-2 min) (eNOS; [9]): sufficient to block
effect on late VEGF-induced eNOS activation (5-30 min) (eNOS; [9]): sufficient to block
effect on VEGF-induced CaM/eNOS interaction (CaM/eNOS interaction; BAPTA pretreatment): completely abrogated
effect on statin-induced phosphorylation of Akt (phospho-Ser473-Akt [5]; CSD peptide loading, BAPTA-AM added 30 minutes before statin): blocked
effect on statin-induced phosphorylation of eNOS (phospho-Ser1177-eNOS [3]): abrogated
effect on atorvastatin-stimulated eNOS/hsp90 interaction (eNOS/hsp90 interaction): abrogated

VEGF
time to complete dissociation of eNOS from caveolin (caveolin-eNOS complex; VEGF 50 ng/ml): ≤ 2 min
time for which dissociation was maintained (caveolin-eNOS complex; in the presence of VEGF): at least 30 min
proportion of eNOS pool engaged in hsp90 interaction (hsp90/eNOS interaction; 5 min VEGF, reverse immunoprecipitation with hsp90 antibodies): around half of the total eNOS pool
cell exposure needed for hsp90 co-immunoprecipitation with eNOS (hsp90/eNOS interaction; VEGF 50 ng/ml): ≥ 2 min
time to maximal eNOS phosphorylation (phospho-Ser1177-eNOS [6]; VEGF exposure): at least 5 min
time at which Akt phosphorylation was already observed (phospho-Ser473-Akt [7]; VEGF exposure): 30 s
proportion of eNOS pool engaged in Akt interaction (Akt/eNOS interaction; 5 min VEGF, reverse immunoprecipitation with Akt antibodies): around half of the total eNOS pool
time from which Akt association to eNOS could be detected (Akt/eNOS interaction; VEGF stimulation): ≥ 2 min
time to peak of calcium transient ([Ca^2+]i; VEGF exposure): 1 min
rate of NO2- produced in the first 5-min interval versus the following 30 min (eNOS; after VEGF stimulation, preliminary experiments): 2-3 fold
absolute amount of NO2^− produced in the 5-30-min period versus the first 2-min VEGF exposure (eNOS; control conditions): 5.5 fold
amounts of NO2^− in the 55-60-min interval (eNOS; following VEGF stimulation): below the detection level
persistence of the CaM/eNOS association (CaM/eNOS interaction; VEGF): at least 30 min
time at which CaM could be detected in the eNOS immune complex (CaM/eNOS interaction; after VEGF stimulation): 2 min

COC1=C2C[C@@H](C)C[C@H](OC)[C@H](O)[C@@H](C)/C=C(\C)[C@H](OC(N)=O)[C@@H](OC)/C=C\C=C(/C)C(=O)NC(=CC1=O)C2=O [geldanamycin]
effect on VEGF-induced caveolin/eNOS dissociation (caveolin-eNOS complex): no significant effect
effect on early VEGF-induced eNOS activation (0-2 min) (eNOS; [9]): no significant effect
part of the recombinant hsp90- and hsp90/Akt-mediated increase in NO production blocked (wild-type eNOS; COS cells, preincubation): 70-95%
part of the Akt-dependent increase in nitrite production blocked (wild-type eNOS; WT-eNOS COS cells pretreated for 30 min): around 70%

CC(=O)N[C@@H](C(=O)O)C(C)(C)SN=O (racemic) [SNAP]
effect on the anti-angiogenic effect observed in caveolin-overexpressing cells (endothelial cells; caveolin-overexpressing cells): correct this anti-angiogenic effect
endothelial tube formation (endothelial cells; non-transfected cells): accelerated the endothelial tube formation
